Laboratory results taken from US9140688B2, “Sperm staining and sorting methods” (INGURAN, LLC, priority 2011, dated 2015).
Where “and” joins values, the source holds several entries; their conditions need not be identical. Equal values may be shown once. Read-outs that look alike come from different tables or passages of the source.

Key:
[1] = tested on: X- and Y-chromosome bearing bovine sperm stained with Hoechst 33342; test: Split quality: height of peak divided by height of valley (PV), flow cytometry of stained bovine sperm; type: cell-based; details: for split enhancing effect compared to control, in words / peak to valley ratio, average 8 bulls: Ex 10; for split enhancing effect compared to control, in words: 15, 45, 125 μM, averaged over 8 bulls; for peak to valley ratio, average 8 bulls: Hoechst 64 μM; for PV: Ex 9, Bull 3, Hoechst 60 μM
[2] = tested on: membrane compromised bovine sperm stained with Hoechst 33342; test: Dead quenching: dead gate intensity divided by live gate intensity, flow cytometry of stained bovine sperm; type: cell-based; details: Ex 10; Y6 25 μM
Excerpt: FIG. 4 illustrates an example bivariate plot and univariate histogram of the parameters measured during sex selection by a FACS on a flow cytometer. […] Without a dead quenching dye, both populations of sperm would overlap to a large extent, with unpredictable variations in the dead sperm.
The entire ejaculate of sperm was suspended in first staining buffer, specifically a 7.4 pH TALP described in TABLE 1, to a concentration of 160×10^6 sperm per mL (determined on nucleocounter) and divided into three aliquots of about 20 mL into 50 mL Falcon tubes and pre-warmed for 10 minutes at 34° C. The DNA selective fluorescent dye, Hoechst 33342, was added and samples were held at 34° C. for 60 minutes. 3 different Hoechst 33342 Stain Levels were used=12 μL, 14 μL and 16 μL per 2 mL (effective concentrations of 48 μM, 56 μM, 64 μM).
Preparation of the second buffer including the dead quenching dye—A 2 L bag of TALP, described in TABLE 1, was adjusted to pH 5.60 using HCl and then sterile filtered. […] For each of the four dyes tested (R40—red food dye No. 40, Y5—yellow food dye No. 5, Y6—yellow food dye No. 6 and PR—phenol red), an appropriate number of milligrams of each powder was placed in a Erlenmeyer Flask and then an exact amount of TALP pH 5.60 was added to create a […] concentration of the dye. The result was a working TALP stock for each dye with a 100% (125 μM) relative amount of dye 50% relative (62.5 μM) and 20% relative (25 μM) solutions were made by dilution of 100% by TALP pH 5.60.
After this “bulk” staining for 60 minutes, 1 mL aliquots of stained sperm were combined with 1 mL aliquots of the second buffer including the dead quenching dyes. Samples sat for approximately 30 minutes at room temperature before being analyzed on a MoFlo SX (Beckman Coulter, USA) sperm sorting flow cytometer. Event rates were held as close to 13,000 as possible at the point of data acquisition.
The total number of individual treatments was 42 tubes, each containing 2 mL of stained sample. The alignment of the sorter was established using nuclei and confirmed with live sample from the 50% Red 40 series. Once good alignment was established, each tube was placed on the sorter long enough to establish a stabile dead gate population (about 30 seconds) and then a screenshot was taken and saved as a .jpeg image. This approach of rapidly documenting each sample is used to assure the most consistent alignment between all samples. Realignment of sorter will not cause differences in the intensities of live and dead gate populations but will cause differences in split quality.
FIG. 4 illustrates an example histogram. The ratio of dead gate intensity divided by live gate intensity is created by dividing the distance “A” by the distance “B” shown as a percentage. Lower values mean higher levels of quenching. The ratio of peak height divided by valley height is created by dividing the distance “C” by the distance “D”. A value of 1.00 means “no split” while higher values mean “better splits”. […]

[3] = cited from earlier work; for (local) maximum absorption wavelength, as believed: phenol red in the red molecular form; for Expected Absorption Maxima: solvent water
[4] = split enhancing dye 15 μM, 30 Min incubation, Y6 25 μM in second buffer
[5] = split enhancing dye 15 μM, 45 Min, Y6 25 μM
[6] = split enhancing dye 15 μM, 60 Min, Y6 25 μM
[7] = split enhancing dye 15 μM, 75 Min, Y6 25 μM
[8] = split enhancing dye 45 μM, 30 Min, Y6 25 μM
[9] = split enhancing dye 45 μM, 45 Min, Y6 25 μM
[10] = split enhancing dye 45 μM, 60 Min, Y6 25 μM
[11] = split enhancing dye 45 μM, 75 Min, Y6 25 μM
[12] = split enhancing dye 125 μM, 30 Min, Y6 25 μM
[13] = split enhancing dye 125 μM, 45 Min, Y6 25 μM
[14] = split enhancing dye 125 μM, 60 Min, Y6 25 μM
[15] = split enhancing dye 125 μM, 75 Min, Y6 25 μM
[16] = shorter-wavelength local maximum

SMILES | split enhancing effect compared to control, in words [1] | peak to valley ratio, average 8 bulls [1, 4] | peak to valley ratio, average 8 bulls [1, 5] | peak to valley ratio, average 8 bulls [1, 6] | peak to valley ratio, average 8 bulls [1, 7] | peak to valley ratio, average 8 bulls [1, 8] | peak to valley ratio, average 8 bulls [1, 9] | peak to valley ratio, average 8 bulls [1, 10] | peak to valley ratio, average 8 bulls [1, 11] | peak to valley ratio, average 8 bulls [1, 12] | peak to valley ratio, average 8 bulls [1, 13] | peak to valley ratio, average 8 bulls [1, 14] | peak to valley ratio, average 8 bulls [1, 15] | dead quenching capacity of split enhancing dye in combination with yellow food dye No. 6 (FIG. 8) [2] | Expected Absorption Maxima [3, 16] [nm] | also measured
Cc1c(C(=O)O)c(O)cc2c1C(=O)c1c(O)c(C3O[C@H](CO)[C@@H](O)[C@H](O)[C@H]3O)c(O)c(O)c1C2=O (stereo in doubt) [Red 4, carmine] | distinct improvements at all concentrations and at all times | 1.09 | 1.44 | 1.79 | 1.91 | 1.18 | 1.50 | 1.76 | 1.94 | 1.13 | 1.45 | 1.81 | 1.95 | significant increase in quenching the dead subpopulation |  | (local) maximum absorption wavelength, as believed ([3]; listed as red food dye No. 4): 520 nm and 555 nm; Expected Absorption Maxima ([3]; listed as Red 4 (natural), longer-wavelength local maximum): 555 nm; Expected Absorption Maxima ([3]; listed as Red 4 (natural), shorter-wavelength local maximum): 520 nm
CCN(Cc1cccc(S(=O)(=O)[O-])c1)c1ccc(C(=C2C=CC(=[N+](CC)Cc3cccc(S(=O)(=O)[O-])c3)C=C2)c2ccccc2S(=O)(=O)[O-])cc1.[Na+].[Na+] [Blue 1] |  |  |  |  |  |  |  |  |  |  |  |  |  |  | 627 | 
O=C1/C(=C2\Nc3ccc(S(=O)(=O)[O-])cc3C2=O)Nc2ccc(S(=O)(=O)[O-])cc21.[Na+].[Na+] [Blue 2] |  |  |  |  |  |  |  |  |  |  |  |  |  |  | 610 | 
CCN(Cc1cccc(S(=O)(=O)[O-])c1)c1ccc(C(=C2C=CC(=[N+](CC)Cc3cccc(S(=O)(=O)[O-])c3)C=C2)c2ccc(O)cc2S(=O)(=O)[O-])cc1.[Na+].[Na+] [Green 3] |  |  |  |  |  |  |  |  |  |  |  |  |  |  | 625 | 
O=S(=O)([O-])c1ccc2c(N=Nc3ccc(S(=O)(=O)[O-])c4ccccc34)c(O)c(S(=O)(=O)[O-])cc2c1.[Na+].[Na+].[Na+] [Red 2] | did not provide a split enhancing, or noise reducing effect | 1.06 | 1.15 | 1.54 | 1.73 | 1.00 | 1.05 | 1.12 | 1.38 | 1.00 | 1.00 | 1.00 | 1.00 | strong dead quenching capacity | 520 | 
O=C(O)c1ccccc1-c1c2cc(I)c(=O)c(I)c-2oc2c(I)c(O)c(I)cc12 [Red 3, 2-(6-Hydroxy-2,4,5,7-tetraiodo-3-oxo-xanthen-9-yl)benzoic acid] |  | 1.05 | 1.43 | 1.78 | 1.79 | 1.05 | 1.36 | 1.58 | 1.60 | 1.00 | 1.02 | 1.10 | 1.32 |  | 530 | PV ([1]; R3 25 μM with Y6 50 μM, first Y6 series): 1.45; PV ([1]; R3 50 μM with R40 50 μM): 1.63; PV ([1]; R3 50 μM with Y6 50 μM, second Y6 series): 1.33; PV ([1]; R3 100 μM with R40 50 μM): 1.65; PV ([1]; R3 100 μM with Y6 50 μM, first Y6 series): 1.38; PV ([1]; R3 100 μM with Y6 50 μM, second Y6 series): 1.55; PV ([1]; R3 150 μM with Y6 50 μM, first Y6 series): 1.41; PV ([1]; R3 200 μM with R40 50 μM): 1.78; PV ([1]; R3 300 μM with R40 50 μM): 2.15; PV ([1]; R3 300 μM with Y6 50 μM, first Y6 series): 1.66; PV ([1]; R3 300 μM with Y6 50 μM, second Y6 series): 1.68; PV ([1]; R3 600 μM with Y6 50 μM, first Y6 series): 1.31; PV ([1]; R3 600 μM with Y6 50 μM, second Y6 series): 1.42; (local) maximum absorption wavelength, as believed [3]: about 530 nm
